The source made the active and inactive calls. No cut-off for these calls is given here.
Tests used:
HCT-116 = assay: Growth inhibition of HCT116 cells by MTT assay; assay type: functional, cell-based; conditions: Homo sapiens
PC-3 = assay: Growth inhibition of PC3 cells; conditions: Homo sapiens
[1] = target: Casein kinase II subunit alpha (Zea mays, UniProt P28523); assay: Inhibition of corn CK2 alpha
Sequence of Casein kinase II subunit alpha (P28523 whole entry): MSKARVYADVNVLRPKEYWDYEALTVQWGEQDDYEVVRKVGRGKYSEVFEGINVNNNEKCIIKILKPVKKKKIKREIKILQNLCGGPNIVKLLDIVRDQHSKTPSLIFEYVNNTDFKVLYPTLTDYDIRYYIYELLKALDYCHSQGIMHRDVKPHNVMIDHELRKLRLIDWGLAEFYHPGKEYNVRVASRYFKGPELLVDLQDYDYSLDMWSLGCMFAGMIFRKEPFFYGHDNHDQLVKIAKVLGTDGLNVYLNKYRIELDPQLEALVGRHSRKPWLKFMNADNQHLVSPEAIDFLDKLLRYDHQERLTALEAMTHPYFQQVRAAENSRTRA

IC50 (HCT-116) [nM] | Compound | further results
1060 | CC(=O)Nc1cccc(Nc2nc(Nc3ccc(CN4CCNCC4)cc3)n3ncc(C#N)c3n2)c1 | IC50 (PC-3): 1400 nM
2100 | CC(=O)Nc1cccc(Nc2nc(Nc3cccc(OC(F)F)c3)n3ncc(C#N)c3n2)c1 | IC50 (PC-3): 1700 nM
18000 | CC(=O)Nc1cccc(Nc2nc(NC3CC3)n3ncc(Br)c3n2)c1 | –
1480 | CCOc1cccc(Nc2nc(Nc3cccc(NC(C)=O)c3)nc3c(C#N)cnn23)c1 | IC50 (PC-3): 1200 nM
39000 | CC(=O)Nc1cccc(Nc2nc(Nc3cccc(C(=O)NCCN(C)C)c3)n3ncc(C#N)c3n2)c1 | –
2200 | CCN(CC)Cc1ccc(Nc2nc(Nc3cccc(NC(C)=O)c3)nc3c(C#N)cnn23)cc1 | –
2500 | CCN(CC)c1cccc(Nc2nc(Nc3cccc(NC(C)=O)c3)nc3c(C#N)cnn23)c1 | –

Further lines, the molecule ahead of its results:

Compound | IC50 (HCT-116) [nM] | further results
CC(=O)Nc1cccc(Nc2nc(Nc3cccc(C(=O)O)c3)n3ncc(C#N)c3n2)c1 | – | Activity (HCT-116): inactive
CC(=O)Nc1cccc(Nc2nc(NC3CCC3)n3ncc(C#N)c3n2)c1 | 5500 | –
CC(=O)Nc1cccc(Nc2nc(Nc3ccccc3)n3ncc(C)c3n2)c1 | 7600 | –
CN(c1ccccc1)c1nc(Nc2ccccc2)n2ncc(C#N)c2n1 | – | Ki [1]: 242 nM
CC(=O)Nc1cccc(Nc2nc(Nc3ccccc3)n3ncc(C#N)c3n2)c1 | 990 | –
CC(=O)Nc1cccc(Nc2nc(NC3CC3)n3ncc(C)c3n2)c1 | 43000 | –
CCN(CC)C(=O)c1cccc(Nc2nc(Nc3cccc(NC(C)=O)c3)nc3c(C#N)cnn23)c1 | 760 | IC50 (PC-3): 610 nM
N#Cc1cnn2c(Nc3ccccc3)nc(Nc3ccccc3)nc12 | – | Ki [1]: 24 nM
CC(=O)Nc1cccc(Nc2nc(Nc3cccc(C(=O)N4CCCC4)c3)n3ncc(C#N)c3n2)c1 | 1400 | IC50 (PC-3): 780 nM
CC(=O)Nc1cccc(Nc2nc(NC3CC3)n3ncc(C#N)c3n2)c1 | 2300 | –

— ChEMBL document CHEMBL1145386, “Structure-based design, synthesis, and study of pyrazolo[1,5-a][1,3,5]triazine derivatives as potent inhibitors of protein kinase CK2” (Bioorg Med Chem Lett, 2007)
